Assay results as given in patent publication US12180187B2, “1-phenyl-5-azinylpyrazolyl-3-oxyalkyl acids and their use for controlling unwanted plant growth” (BAYER AKTIENGESELLSCHAFT, priority 2019, dated 2024).

Assays:
AMARE [1] = experiment: Post-emergence action against AMARE, 1.28 kg/ha; format: in vivo, Amaranthus retroflexus; details: dosage 1280 g/ha, visual rating about 3 weeks after treatment vs untreated controls (100% = plants died)
Outline: (§1)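 Foliar application at the one-leaf stage: compound as WP or EC in water with 0.5% additive, sprayed at 600 L/ha. Plants are kept about 3 weeks in the greenhouse, then % herbicidal action is estimated visually (100% = death).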

STEME [2] = experiment: Post-emergence action against STEME, 1.28 kg/ha; format: in vivo, Stellaria media; details: dosage 1280 g/ha, visual rating about 3 weeks after treatment vs untreated controls (100% = plants died)
Outline: as §1

POAAN [3] = experiment: Pre-emergence action against POAAN, 1280 g/ha; format: in vivo, Poa annua; details: visual scoring after about 3 weeks vs untreated controls, 100% = plants have died, 0% = like control plants
Outline: (§2)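 Percent herbicidal effect, judged by eye relative to untreated pots around 3 weeks after soil-surface treatment. Application: formulated compound in water, 600 L/ha, 0.5% additive, on soil over sown seeds; greenhouse.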

LOLRI [4] = experiment: Post-emergence action against LOLRI, 1.28 kg/ha; format: in vivo, Lolium rigidum; details: dosage 1280 g/ha, visual rating about 3 weeks after treatment vs untreated controls
Outline: as §1

STEME [5] = experiment: Pre-emergence action against STEME, 1280 g/ha; format: in vivo, Stellaria media; details: scored visually after about 3 weeks vs untreated controls (100% = plants have died)
Outline: as §2

KCHSC [6] = experiment: Pre-emergence action against KCHSC, 1280 g/ha; format: in vivo, Bassia scoparia; details: scored visually after about 3 weeks vs untreated controls (100% = plants have died)
Outline: as §2

ECHGC = experiment: Pre-emergence action at 320 g/ha against ECHGC; format: in vivo, Echinochloa crus-galli; details: visual scoring after about 3 weeks vs untreated controls
Excerpt: b) Seeds of monocotyledonous and dicotyledonous weed plants and crop plants are placed in plastic or organic planting pots and covered with soil. The compounds of the invention, formulated in the form of wettable powders (WP) or as emulsion concentrates (EC), are then applied onto the surface of the covering soil as aqueous suspension or emulsion with addition of 0.5% additive at a water application rate of 600 l/ha (converted). After the treatment, the pots are placed in a greenhouse and kept under good growth conditions for the trial plants. After about 3 weeks, the effect of the preparations is scored visually in comparison with untreated controls as percentages. For example, 100% activity=the plants have died, 0% activity=like control plants. Tables 13 to 26 below show the effects of selected compounds of the general formula (I) on various harmful plants and at an application rate corresponding to 320 g/ha, which were obtained by the experimental procedure mentioned above.

SETVI [7] = experiment: Pre-emergence action against SETVI, 1280 g/ha; format: in vivo, Setaria viridis; details: visual scoring after about 3 weeks vs untreated controls, 100% = plants have died, 0% = like control plants
Outline: as §2

SETVI [8] = experiment: Pre-emergence action at 320 g/ha against SETVI; format: in vivo, Setaria viridis; details: visual scoring after about 3 weeks vs untreated controls
Outline: (§3)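 Effect rated visually (% vs untreated control) about 3 weeks after pre-emergence spraying of WP/EC formulation onto soil; spray carried 0.5% additive at 600 l/ha water.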

ALOMY [9] = experiment: Pre-emergence action against ALOMY, 1280 g/ha; format: in vivo, Alopecurus myosuroides; details: visual scoring after about 3 weeks vs untreated controls, 100% = plants have died, 0% = like control plants
Outline: as §2

ALOMY [10] = experiment: Post-emergence action against ALOMY, 1.28 kg/ha; format: in vivo, Alopecurus myosuroides; details: dosage 1280 g/ha, visual rating about 3 weeks after treatment vs untreated controls
Outline: as §1

DIGSA [11] = experiment: Post-emergence action against DIGSA, 1.28 kg/ha; format: in vivo, Digitaria sanguinalis; details: dosage 1280 g/ha, visual rating about 3 weeks after treatment vs untreated controls
Outline: as §1

MATIN [12] = experiment: Pre-emergence action against MATIN, 1280 g/ha; format: in vivo, Tripleurospermum inodorum (Matricaria inodora); details: scored visually after about 3 weeks vs untreated controls (100% = plants have died)
Outline: as §2

KCHSC [13] = experiment: Post-emergence action against KCHSC, 1.28 kg/ha; format: in vivo, Bassia scoparia; details: dosage 1280 g/ha, visual rating about 3 weeks after treatment vs untreated controls (100% = plants died)
Outline: as §1

LOLRI [14] = experiment: Pre-emergence action at 320 g/ha against LOLRI; format: in vivo, Lolium rigidum; details: visual scoring after about 3 weeks vs untreated controls
Outline: as §3

VERPE [15] = experiment: Pre-emergence action against VERPE, 1280 g/ha; format: in vivo, Veronica persica; details: scored visually after about 3 weeks vs untreated controls (100% = plants have died)
Outline: as §2

ALOMY [16] = experiment: Pre-emergence action at 320 g/ha against ALOMY; format: in vivo, Alopecurus myosuroides; details: scored visually after about 3 weeks vs untreated controls (100% = plants have died)
Outline: as §3

AVEFA = experiment: Pre-emergence action at 320 g/ha against AVEFA; format: in vivo; details: visual scoring after about 3 weeks vs untreated controls
Outline: as §3

VERPE [17] = experiment: Pre-emergence action at 320 g/ha against VERPE; format: in vivo, Veronica persica; details: visual scoring after about 3 weeks vs untreated controls
Outline: as §3

VERPE [18] = experiment: Post-emergence action against VERPE, 1.28 kg/ha; format: in vivo, Veronica persica; details: dosage 1280 g/ha, visual rating about 3 weeks after treatment vs untreated controls (100% = plants died)
Outline: as §1

POAAN [19] = experiment: Post-emergence action against POAAN, 1.28 kg/ha; format: in vivo, Poa annua; details: dosage 1280 g/ha, visual rating about 3 weeks after treatment vs untreated controls
Outline: as §1

MATIN [20] = experiment: Post-emergence action against MATIN, 1.28 kg/ha; format: in vivo, Tripleurospermum inodorum (Matricaria inodora); details: dosage 1280 g/ha, visual rating about 3 weeks after treatment vs untreated controls (100% = plants died)
Outline: as §1

AMARE [21] = experiment: Pre-emergence action against AMARE, 1280 g/ha; format: in vivo, Amaranthus retroflexus; details: scored visually after about 3 weeks vs untreated controls (100% = plants have died)
Outline: as §2

LOLRI [22] = experiment: Pre-emergence action against LOLRI, 1280 g/ha; format: in vivo, Lolium rigidum; details: visual scoring after about 3 weeks vs untreated controls, 100% = plants have died, 0% = like control plants
Outline: as §2

AMARE [23] = experiment: Pre-emergence action at 320 g/ha against AMARE; format: in vivo, Amaranthus retroflexus; details: visual scoring after about 3 weeks vs untreated controls
Outline: as §3

ECHCG [24] = experiment: Post-emergence action against ECHCG, 1.28 kg/ha; format: in vivo, Echinochloa crus-galli; details: dosage 1280 g/ha, visual rating about 3 weeks after treatment vs untreated controls
Outline: as §1

ECHCG [25] = experiment: Pre-emergence action against ECHCG, 1280 g/ha; format: in vivo, Echinochloa crus-galli; details: visual scoring after about 3 weeks vs untreated controls, 100% = plants have died, 0% = like control plants
Outline: as §2

SETVI [26] = experiment: Post-emergence action against SETVI, 1.28 kg/ha; format: in vivo, Setaria viridis; details: dosage 1280 g/ha, visual rating about 3 weeks after treatment vs untreated controls
Outline: as §1

VIOTR = experiment: Pre-emergence action at 320 g/ha against VIOTR; format: in vivo, Viola tricolor; details: dosage 320 g/ha
Outline: as §3

ABUTH [27] = experiment: Pre-emergence action against ABUTH, 1280 g/ha; format: in vivo, Abutilon theophrasti; details: scored visually after about 3 weeks vs untreated controls (100% = plants have died)
Outline: as §2

DIGSA [28] = experiment: Pre-emergence action at 320 g/ha against DIGSA; format: in vivo, Digitaria sanguinalis; details: visual scoring after about 3 weeks vs untreated controls
Outline: as §3

DIGSA [29] = experiment: Pre-emergence action against DIGSA, 1280 g/ha; format: in vivo, Digitaria sanguinalis; details: visual scoring after about 3 weeks vs untreated controls, 100% = plants have died, 0% = like control plants
Outline: as §2

ABUTH [30] = experiment: Post-emergence action against ABUTH, 1.28 kg/ha; format: in vivo, Abutilon theophrasti; details: dosage 1280 g/ha, visual rating about 3 weeks after treatment vs untreated controls (100% = plants died)
Outline: as §1

MATIN [31] = experiment: Pre-emergence action at 320 g/ha against MATIN; format: in vivo, Tripleurospermum inodorum (Matricaria inodora); details: visual scoring after about 3 weeks vs untreated controls
Outline: as §3

POLCO = experiment: Pre-emergence action at 320 g/ha against POLCO; format: in vivo, Fallopia convolvulus (Polygonum convolvulus); details: visual scoring after about 3 weeks vs untreated controls
Outline: as §3

SETVI [32] = experiment: Post-emergence action at 320 g/ha against SETVI; format: in vivo, Setaria viridis; details: visual rating about 3 weeks after treatment vs untreated controls
Excerpt: (§4) Accordingly, the compounds of the invention have good herbicidal action against a broad spectrum of weed grasses and broad-leaved weeds and are therefore suitable for controlling unwanted vegetation by the post-emergence method. • b) Seeds of monocotyledonous and dicotyledonous weeds and crop plants are placed in sandy loam in plastic or organic planting pots, covered with soil and cultivated in a greenhouse under controlled growth conditions. 2 to 3 weeks after sowing, the test plants are treated at the one-leaf stage. The compounds of the invention, formulated in the form of wettable powders (WP) or as emulsion concentrates (EC), are then sprayed onto the green parts of the plants as aqueous suspension or emulsion with addition of 0.5% additive at a water application rate of 600 l/ha (converted). After the test plants have been kept in the greenhouse under optimum growth conditions for about 3 weeks, the activity of the preparations is rated visually in comparison to untreated controls. For example, 100% activity=the plants have died, 0% activity=like control plants. Tables 39 to 49 below show the effects of selected compounds of the general formula (I) according to Tables 1 and 2 on various harmful plants and at an application rate corresponding to 320 g/ha, which were obtained by the experimental procedure mentioned above.

ALOMY [33] = experiment: Post-emergence action against ALOMY, 320 g/ha; format: in vivo, Alopecurus myosuroides; details: dosage 320 g/ha, visual rating about 3 weeks after treatment vs untreated controls (100% = plants died)
Excerpt: as §4

DIGSA [34] = experiment: Post-emergence action at 320 g/ha against DIGSA; format: in vivo, Digitaria sanguinalis; details: dosage 320 g/ha, visual rating about 3 weeks after treatment vs untreated controls (100% = plants died)
Excerpt: as §4

Compound | Post-emergence action against STEME (STEME [2]) | Pre-emergence action against POAAN (POAAN [3]) | Post-emergence action against LOLRI (LOLRI [4]) | Pre-emergence action against STEME (STEME [5]) | Pre-emergence action against KCHSC (KCHSC [6]) | Pre-emergence action against ECHGC in % (ECHGC) | Pre-emergence action against SETVI (SETVI [7]) | Pre-emergence action against SETVI in % (SETVI [8]) | Pre-emergence action against ALOMY (ALOMY [9]) | Post-emergence action against DIGSA (DIGSA [11]) | Pre-emergence action against MATIN (MATIN [12]) | Post-emergence action against KCHSC (KCHSC [13]) | Pre-emergence action against LOLRI in % (LOLRI [14]) | Pre-emergence action against VERPE (VERPE [15]) | Pre-emergence action at 320 g/ha against ALOMY in % (ALOMY [16]) | Pre-emergence action against AVEFA in % (AVEFA) | Pre-emergence action against VERPE in % (VERPE [17]) | Post-emergence action against POAAN (POAAN [19]) | Post-emergence action against MATIN (MATIN [20]) | Pre-emergence action against AMARE (AMARE [21]) | further results
O=C(COc1nn(-c2ccccc2F)c(-c2ccc(F)nc2)c1Br)OCCCl [VII-108] | 100% | 100% | 100% | 100% | 90% | 100% | 100% | 100% | 100% | 100% | 100% | 90% | 100% | 100% | 100% | 80% | 100% | 100% | 100% | 100% | Post-emergence action against AMARE (AMARE [1]): 100%; Post-emergence action against ALOMY (ALOMY [10]): 100%; Post-emergence action against VERPE (VERPE [18]): 100%; Pre-emergence action against LOLRI (LOLRI [22]): 100%; Pre-emergence action against AMARE in % (AMARE [23]): 100%; Post-emergence action against ECHCG (ECHCG [24]): 100%; Pre-emergence action against ECHCG (ECHCG [25]): 100%; Post-emergence action against SETVI (SETVI [26]): 90%; Pre-emergence action against VIOTR in % (VIOTR): 100%; Pre-emergence action against ABUTH (ABUTH [27]): 90%; Pre-emergence action against DIGSA in % (DIGSA [28]): 100%; Pre-emergence action against DIGSA (DIGSA [29]): 100%; Post-emergence action against ABUTH (ABUTH [30]): 90%; Pre-emergence action against MATIN in % (MATIN [31]): 100%; Pre-emergence action against POLCO in % (POLCO): 100%
CC(Oc1nn(-c2ccccc2F)c(-c2ccc(F)nc2)c1I)C(=O)O (stereo not shown) [VII-118] | 100% | 100% | 100% | 100% | 100% | 90% | 100% | 90% | 100% | 100% | 100% | 90% | 100% | 100% | 100% | 100% | 90% | 100% | 90% | 100% | Post-emergence action against SETVI in % (SETVI [32]): 80%; Post-emergence action against ALOMY (ALOMY [33]): 90%; Post-emergence action at 320 g/ha against DIGSA in % (DIGSA [34]): 90%; Pre-emergence action against LOLRI (LOLRI [22]): 100%; Pre-emergence action against AMARE in % (AMARE [23]): 100%; Post-emergence action against ECHCG (ECHCG [24]): 100%; Pre-emergence action against ECHCG (ECHCG [25]): 100%; Pre-emergence action against VIOTR in % (VIOTR): 100%; Pre-emergence action against DIGSA in % (DIGSA [28]): 100%; Pre-emergence action against DIGSA (DIGSA [29]): 100%; Pre-emergence action against MATIN in % (MATIN [31]): 90%; Pre-emergence action against POLCO in % (POLCO): 100%
